{
  "source": "patent US20100029615A1",
  "about": "“BENZIMIDAZOLE DERIVATIVES” (priority 2006, published 2010)",
  "target": "T1, SMO (Mus musculus, UniProt P56726)",
  "T1 construct": "endogenous in cells; host or cells: C3H10T1/2 (ATCC #CCL-226)",
  "T1 sequence (P56726 33-793)": "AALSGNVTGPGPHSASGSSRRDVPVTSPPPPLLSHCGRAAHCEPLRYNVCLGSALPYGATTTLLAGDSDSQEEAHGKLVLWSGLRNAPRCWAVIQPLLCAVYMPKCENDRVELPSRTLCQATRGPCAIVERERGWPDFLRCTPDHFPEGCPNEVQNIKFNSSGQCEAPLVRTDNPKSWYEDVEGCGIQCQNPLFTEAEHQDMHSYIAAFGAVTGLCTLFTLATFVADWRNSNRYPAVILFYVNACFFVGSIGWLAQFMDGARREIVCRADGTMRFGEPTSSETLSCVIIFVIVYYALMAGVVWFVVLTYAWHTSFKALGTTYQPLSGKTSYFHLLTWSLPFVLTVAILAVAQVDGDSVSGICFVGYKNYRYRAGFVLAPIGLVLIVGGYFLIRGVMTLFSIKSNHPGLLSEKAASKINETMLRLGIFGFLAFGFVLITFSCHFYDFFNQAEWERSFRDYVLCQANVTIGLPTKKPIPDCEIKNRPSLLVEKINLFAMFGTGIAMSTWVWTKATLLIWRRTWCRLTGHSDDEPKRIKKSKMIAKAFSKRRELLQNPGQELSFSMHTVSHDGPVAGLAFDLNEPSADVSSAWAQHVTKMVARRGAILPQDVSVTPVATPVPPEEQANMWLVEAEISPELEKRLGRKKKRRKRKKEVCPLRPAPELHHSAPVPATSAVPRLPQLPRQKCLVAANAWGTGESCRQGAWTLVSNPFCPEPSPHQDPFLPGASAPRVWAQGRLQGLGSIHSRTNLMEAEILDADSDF",
  "assay": "Smoothened (SMO)/Sonic Hedgehog (SHh) Transient Transcriptional Activation Assay (Gli-luciferase reporter in C3H10T1/2 cells)",
  "format": "cell-based, murine",
  "conditions": "C3H 10T1/2, 2 μM test compound, SHh 250 ng/ml, 20 hrs, read-out: SMO CELL % INHIBITION @ 2 μM",
  "protocol": "As noted above, the compounds of the invention are useful as inhibitors of SMO. Methods for determining the in vitro activity of these compounds are described below: Smoothened (SMO)/Sonic Hedgehog (SHh) Transient Transcriptional Activation Assay\nOn Day 1,2×10^6 C3H10T1/2 cells (ATCC #CCL-226) were split and seeded in 12 mls of growth medium Basal Medium Eagle (BME, Invitrogen #21010-046) supplemented with 2 mM L-glutamine (Invitrogen #25030-081), 0.1 units/ml penicillin and 0.1 ug/ml streptomycin (Invitrogen #15140-122), and 10% Fetal Bovine Serum (FBS, Invitrogen #16140-071) in a T-75 flask (Costar #3376). They were allowed to attach for 4 hours at 37° C., 5% CO2. The cells were then transfected using Fugene 6 (Roch #11 814 443 001) in the following reaction: 48 ul Fugene 6 and 745 ul Opti-MEM (Invitrogen #31985-070) were mixed and allowed to sit at room temperature for 5 minutes. 8 ug of pGL4.14/mGli(CS) DNA (10× murine Gli response elements and minimal CS promoter) and 0.5 ug of pEGFP DNA (Clontech) were added, gently mixed and incubated at room temperature for 20 minutes. This entire transfection mix was then added to the T-75 flask containing the cells. The cells were incubated at 37 °C, 5% C02 for 18-24 hrs.\nOn Day 2, the transfected cells were trypsinized and seeded into white 96 well plates (Costar #3917) in 100ul/well of growth medium at a concentration of 20,000 cells/well. The cells were allowed to recover for 4 hrs before adding serum starvation medium Dulbecco's Modified Eagle Medium (DMEM, Invitrogen #21063-029) supplemented with 2 mM L-glutamine, 0.1 units/ml penicillin and 0.1 ug/ml streptomycin, and 0.5% Calf Serum (CS, Invitrogen #26170-043). The growth media was aspirated off, and the cells were rinsed with 100 ul of starvation media. 95 ul of starvation media was then added to each well. The cells were incubated for 20 hrs at 37 °C, 5% C02.\nOn Day 3, cells were dosed with test compounds at a final concentration ranging from 2 uM to 2 nM. Immediately after dosing cells with compounds, recombinant human sonic hedgehog (SHh, R&D Systems #1845-SH) was add to a final concentration of 250 ng/ml. A 25 ug vial of SHh was reconstituted with 250 ul PBS/0.1% BSA to give a 100 ng/ul working stock. This working stock was then diluted 1:20 in starvation media. The transfected cells were incubated with compounds and SHh for 20 hrs at 37 °C, 5% C02.\nLuciferase assays were conducted on Day 4 using Dual-Glo Luciferase assay system (Promega #E2940) according to Promega's protocol. Briefly, Dual-Glo luciferase reagent was made up and 100 uls were added to each well of the 96 well plate containing media. Plates were shaken at room temperature for 10 minutes, and then read on TopCount (Perkin-Elmer). The luminescence was recorded.",
  "note": "Where a name gives a salt, the structure may show the parent alone.",
  "data": [
    {"smiles": "CC(C)(C)c1ccc2nc(C3CCCC(NC(=O)c4ccc5c(c4)OCCO5)C3)[nH]c2c1", "note": "(stereo not drawn) [Example 78, N-[3-(6-tert-butyl-1H-benzimidazol-2-yl)cyclohexyl]-2,3-dihydro-1,4-benzodioxine-6-carboxamide HCl]", "values": [
      {"measurement": "inhibition at 2 µM", "result": 100, "unit": "%"}
    ]},
    {"smiles": "Cc1cccc2nc(C3CCCC(NC(=O)c4ccc5c(c4)OCCO5)C3)[nH]c12", "note": "(stereo not drawn) [Example 79, N-[3-(7-methyl-1H-benzimidazol-2-yl)cyclohexyl]-2,3-dihydro-1,4-benzodioxine-6-carboxamide HCl]", "values": [
      {"measurement": "inhibition at 2 µM", "result": 102, "unit": "%"}
    ]},
    {"smiles": "Cc1cc2nc(C3CCCC(NC(=O)c4ccc5c(c4)OCCO5)C3)[nH]c2cc1C", "note": "(stereo not drawn) [Example 80, N-[3-(5,6-dimethyl-1H-benzimidazol-2-yl)cyclohexyl]-2,3-dihydro-1,4-benzodioxine-6-carboxamide HCl]", "values": [
      {"measurement": "inhibition at 2 µM", "result": 103, "unit": "%"}
    ]},
    {"smiles": "O=C(NC1CCCC(c2nc3ccc(F)c(F)c3[nH]2)C1)c1ccc2c(c1)OCCO2", "note": "(stereo not drawn) [Example 81, N-[3-(6,7-difluoro-1H-benzimidazol-2-yl)cyclohexyl]-2,3-dihydro-1,4-benzodioxine-6-carboxamide HCl]", "values": [
      {"measurement": "inhibition at 2 µM", "result": 103, "unit": "%"}
    ]},
    {"smiles": "Cc1c(Br)cc2[nH]c(C3CCCC(NC(=O)c4ccc5c(c4)OCCO5)C3)nc2c1C", "note": "(stereo not drawn) [Example 82, N-[3-(6-bromo-4,5-dimethyl-1H-benzimidazol-2-yl)cyclohexyl]-2,3-dihydro-1,4-benzodioxine-6-carboxamide HCl]", "values": [
      {"measurement": "inhibition at 2 µM", "result": 101, "unit": "%"}
    ]},
    {"smiles": "O=C(NC1CCCC(c2nc3cc(F)c(F)cc3[nH]2)C1)c1ccc2c(c1)OCCO2", "note": "(stereo not drawn) [Example 83, N-[3-(5,6-difluoro-1H-benzimidazol-2-yl)cyclohexyl]-2,3-dihydro-1,4-benzodioxine-6-carboxamide HCl]", "values": [
      {"measurement": "inhibition at 2 µM", "result": 103, "unit": "%"}
    ]},
    {"smiles": "O=C(NC1CCCC(c2nc3ccc(C(F)(F)F)cc3[nH]2)C1)c1ccc2c(c1)OCCO2", "note": "(stereo not drawn) [Example 84, N-{3-[6-(trifluoromethyl)-1H-benzimidazol-2-yl]cyclohexyl}-2,3-dihydro-1,4-benzodioxine-6-carboxamide-HCl]", "values": [
      {"measurement": "inhibition at 2 µM", "result": 101, "unit": "%"}
    ]},
    {"smiles": "O=C(NC1CCCC(c2nc3ccc(Cl)cc3[nH]2)C1)c1ccc2c(c1)OCCO2", "note": "(stereo not drawn) [Example 85, N-[3-(6-chloro-1H-benzimidazol-2-yl)cyclohexyl]-2,3-dihydro-1,4-benzodioxine-6-carboxamide HCl]", "values": [
      {"measurement": "inhibition at 2 µM", "result": 103, "unit": "%"}
    ]},
    {"smiles": "O=C(NC1CCCC(c2nc3ccc(Br)cc3[nH]2)C1)c1ccc2c(c1)OCCO2", "note": "(stereo not drawn) [Example 86, N-[3-(6-bromo-1H-benzimidazol-2-yl)cyclohexyl]-2,3-dihydro-1,4-benzodioxine-6-carboxamide HCl]", "values": [
      {"measurement": "inhibition at 2 µM", "result": 102, "unit": "%"}
    ]},
    {"smiles": "O=C(NC12CCCC(c3nc4ccccc4[nH]3)(C1)C2)c1ccc2c(c1)OCCO2", "note": "[Example 87, N-[5-(1H-benzimidazol-2-yl)bicyclo[3.1.1]hept-1-yl]-2,3-dihydro-1,4-benzodioxine-6-carboxamide]", "values": [
      {"measurement": "inhibition at 2 µM", "result": 91, "unit": "%"}
    ]},
    {"smiles": "COc1ccc2[nH]c([C@H]3CCC[C@@H](NC(=O)c4ccc5c(c4)OCCO5)C3)nc2c1", "note": "[Example 88, N-[(1R,3S)-3-(5-methoxy-1H-benzimidazol-2-yl)cyclohexyl]-2,3-dihydro-1,4-benzodioxine-6-carboxamide HCl]", "values": [
      {"measurement": "inhibition at 2 µM", "result": 106, "unit": "%"}
    ]},
    {"smiles": "O=C(CCC(=O)c1ccccc1)NC1CCCC(c2nc3ccccc3[nH]2)C1", "note": "(stereo not drawn) [Example 89, N-[3-(1H-benzimidazol-2-yl)cyclohexyl]-4-oxo-4-phenylbutanamide triflouroacetate]", "values": [
      {"measurement": "inhibition at 2 µM", "result": 96, "unit": "%"}
    ]},
    {"smiles": "O=C(NC1CCCC(c2nc3ccccc3[nH]2)C1)c1ccc(-n2ccnc2)cc1", "note": "(stereo not drawn) [Example 90, N-[3-(1H-benzimidazol-2-yl)cyclohexyl]-4-(1H-imidazol-1-yl)benzamide triflouroacetate]", "values": [
      {"measurement": "inhibition at 2 µM", "result": 100, "unit": "%"}
    ]},
    {"smiles": "O=C(NC1CCCC(c2nc3ccccc3[nH]2)C1)c1cnn(Cc2ccccc2)c1", "note": "(stereo not drawn) [Example 91, N-[3-(1H-benzimidazol-2-yl)cyclohexyl]-1-benzyl-1H-pyrazole-4-carboxamide triflouroacetate]", "values": [
      {"measurement": "inhibition at 2 µM", "result": 99, "unit": "%"}
    ]},
    {"smiles": "O=C(Cn1nc2ccccc2n1)NC1CCCC(c2nc3ccccc3[nH]2)C1", "note": "(stereo not drawn) [Example 92, N-[3-(1H-benzimidazol-2-yl)cyclohexyl]-2-(2H-1,2,3-benzotriazol-2-yl)acetamide triflouroacetate]", "values": [
      {"measurement": "inhibition at 2 µM", "result": 90, "unit": "%"}
    ]},
    {"smiles": "Cc1ccoc1C(=O)NC1CCCC(c2nc3ccccc3[nH]2)C1", "note": "(stereo not drawn) [Example 93, N-[3-(1H-benzimidazol-2-yl)cyclohexyl]-3-methyl-2-furamide triflouroacetate]", "values": [
      {"measurement": "inhibition at 2 µM", "result": 24, "unit": "%"}
    ]},
    {"smiles": "CN1c2ccccc2OCC1CC(=O)NC1CCCC(c2nc3ccccc3[nH]2)C1", "note": "(stereo not drawn) [Example 94, N-[3-(1H-benzimidazol-2-yl)cyclohexyl]-2-(4-methyl-3,4-dihydro-2H-1,4-benzoxazin-3-yl)acetamide triflouroacetate]", "values": [
      {"measurement": "inhibition at 2 µM", "result": 96, "unit": "%"}
    ]},
    {"smiles": "O=C(Cn1ncc2ccccc21)NC1CCCC(c2nc3ccccc3[nH]2)C1", "note": "(stereo not drawn) [Example 95, N-[3-(1H-benzimidazol-2-yl)cyclohexyl]-2-(1H-indazol-1-yl)acetamide triflouroacetate]", "values": [
      {"measurement": "inhibition at 2 µM", "result": 20, "unit": "%"}
    ]},
    {"smiles": "COCOc1ccc(C(=O)NC2CCCC(c3nc4ccccc4[nH]3)C2)cc1", "note": "(stereo not drawn) [Example 96, N-[3-(1H-benzimidazol-2-yl)cyclohexyl]-4-(methoxymeth-oxy)benzamide triflouroacetate]", "values": [
      {"measurement": "inhibition at 2 µM", "result": 93, "unit": "%"}
    ]},
    {"smiles": "CC(C)C1=NOC(C(=O)NC2CCCC(c3nc4ccccc4[nH]3)C2)C1", "note": "(stereo not drawn) [Example 97, N-[3-(1H-benzimidazol-2-yl)cyclohexyl]-3-isopropyl-4,5-dihydroisoxazole-5-carboxamide triflouroacetate]", "values": [
      {"measurement": "inhibition at 2 µM", "result": 83, "unit": "%"}
    ]},
    {"smiles": "CCOC(=O)CCCCC(=O)NC1CCCC(c2nc3ccccc3[nH]2)C1", "note": "(stereo not drawn) [Example 98, ethyl 6-{[3-(1H-benzimidazol-2-yl)cyclohexyl]amino}-6-oxohexanoate trifl;uoroacetate]", "values": [
      {"measurement": "inhibition at 2 µM", "result": 55, "unit": "%"}
    ]},
    {"smiles": "CC(=O)c1c(C)[nH]c(C(=O)NC2CCCC(c3nc4ccccc4[nH]3)C2)c1C", "note": "(stereo not drawn) [Example 99, 4-acetyl-N-[3-(1H-benzimidazol-2-yl)cyclohexyl]-3,5-dimethyl-1H-pyrrole-2-carboxamide triflouroacetate]", "values": [
      {"measurement": "inhibition at 2 µM", "result": 107, "unit": "%"}
    ]},
    {"smiles": "COc1cc(OC)cc(C(=O)NC23CCCC(c4nc5ccccc5[nH]4)(C2)C3)c1", "note": "[Example 100, N-[5-(1H-benzimidazol-2-yl)bicyclo[3.1.1]hept-1-yl]-3,5-dimethoxybenz-amide]", "values": [
      {"measurement": "inhibition at 2 µM", "result": 81, "unit": "%"}
    ]},
    {"smiles": "O=C(NC1CCCC(c2nc3ccccc3[nH]2)C1)c1n[nH]c2ccccc12", "note": "(stereo not drawn) [Example 101, N-[3-(1H-benzimidazol-2-yl)cyclohexyl]-1H-indazole-3-carboxamide triflouroacetate]", "values": [
      {"measurement": "inhibition at 2 µM", "result": 56, "unit": "%"}
    ]},
    {"smiles": "N#CCC(=O)NC1CCCC(c2nc3ccccc3[nH]2)C1", "note": "(stereo not drawn) [Example 102, N-[3-(1H-benzimidazaol-2-yl)cyclohexyl]-2-cyanoacetamide triflouroacetate]", "values": [
      {"measurement": "inhibition at 2 µM", "result": 93, "unit": "%"}
    ]},
    {"smiles": "COC(=O)CCCC(=O)NC1CCCC(c2nc3ccccc3[nH]2)C1", "note": "(stereo not drawn) [Example 103, methyl 5-{[3-(1H-benzimidazol-2-yl)cyclohexyl]-amino}-5-oxopentanoate triflouroacetate]", "values": [
      {"measurement": "inhibition at 2 µM", "result": 94, "unit": "%"}
    ]},
    {"smiles": "O=C(COCc1ccccc1)NC1CCCC(c2nc3ccccc3[nH]2)C1", "note": "(stereo not drawn) [Example 104, N-[3-(1H-benzimidazol-2-yl)cyclohexyl]-2-(benzyloxy)-acetamide triflouroacetate]", "values": [
      {"measurement": "inhibition at 2 µM", "result": 73, "unit": "%"}
    ]},
    {"smiles": "O=C(CN1C(=O)COc2cccnc21)NC1CCCC(c2nc3ccccc3[nH]2)C1", "note": "(stereo not drawn) [Example 105, N-[3-(1H-benzimidazol-2-yl)cyclohexyl]-2-(3-oxo-2,3-dihydro-4H-pyrido[3,2-b][1,4]oxazin-4-yl)acetamide triflouroacetate]", "values": [
      {"measurement": "inhibition at 2 µM", "result": 103, "unit": "%"}
    ]},
    {"smiles": "O=C(NC1CCCC(c2nc3ccccc3[nH]2)C1)c1ccnn1-c1ccccc1", "note": "(stereo not drawn) [Example 106, N-[3-(1H-benzimidazol-2-yl)cyclohexyl]-1-phenyl-1H-pyrazole-5-carboxamide triflouroacetate]", "values": [
      {"measurement": "inhibition at 2 µM", "result": 76, "unit": "%"}
    ]},
    {"smiles": "O=C(Cc1cn2cc(Cl)ccc2n1)NC1CCCC(c2nc3ccccc3[nH]2)C1", "note": "(stereo not drawn) [Example 107, N-[3-(1H-benzimidazol-2-yl)cyclohexyl]-2-(6-chloroimidazo[1,2-a]pyridin-2-yl)acetamide triflouroacetate]", "values": [
      {"measurement": "inhibition at 2 µM", "result": 79, "unit": "%"}
    ]}
  ]
}
